Measured values: patent publication US9862746B2, “Compositions and methods relating to hindering DOT1L recruitment by MLL-fusion proteins” (The Regents of the University of Michigan, priority 2013, dated 2018)
Where a SMILES comes first, the peptide text is derived from it. [ ]: non-standard residue; d: D form. The star is where a group is joined. 5FAM = O=C1OC2(c3ccc(O)cc3Oc3cc(O)ccc32)c2ccc(C(=O)*)cc21; βAla = NCCC(=O)O

Target: T1, ENL L550E (Homo sapiens, UniProt Q03111, L550E)
T1 construct: MBP-ENL (489-559) L550E; made in house; host or cells: Escherichia coli BL21 (DE3)
T1 sequence (Q03111 489-559 L550E): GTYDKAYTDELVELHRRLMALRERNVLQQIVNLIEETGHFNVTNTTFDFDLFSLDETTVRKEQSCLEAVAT
Assay: FP saturation binding of Flu-DOT1L 10 mer to mutated ENL
Experimental: To further map and determined the residues in C-terminal domain of ENL that are essential for the interaction with DOT1L (so called “hot-spots”), an ENL mutant, L550E (FIG. 7A), was prepared which was reported to block the transforming capacity of MLL-ENL fusion protein (see, e.g., Yokoyama, A., et al., (2010) Cancer cell 17, 198-212).
Fluorescence polarization (FP) assay—FP experiments were performed in 96-well, black, round-bottom plates (Corning) using the plate reader (Biotek H1 hybrid). Fluorescein tagged DOT1L 10 mer peptide (Flu-DOT1L) was used as a fluorescent probe in the FP based binding assays. […] The plate was mixed on a shaker and incubated at room temperature to reach equilibrium. The polarization values in milli-polarization units (mP) were measured at an excitation wavelength at 485 nm and an emission wavelength at 530 nm. Polarization data were analyzed using GraphPad Prism 5.0 by non-linear fitting with a one-site binding model.

## CC[C@H](C)[C@H](NC(=O)[C@@H]1CCCN1C(=O)[C@H](CC(C)C)NC(=O)CCNC(=O)CCNC(=O)[C@H](CCCCNC(=O)c1ccc2c(c1)C(=O)OC21c2ccc(O)cc2Oc2cc(O)ccc21)NC(C)=O)C(=O)N[C@@H](CO)C(=O)N[C@H](C(=O)N1CCC[C@H]1C(=O)N[C@@H](CC(C)C)C(=O)N[C@@H](CO)C(=O)N[C@H](C(=O)N[C@H](C(N)=O)C(C)C)[C@@H](C)O)[C@@H](C)CC [fluorescent labeled DOT1L 10-mer peptide] (Ac-K(5FAM)[βAla][βAla]LPISIPLSTV-NH2)
  binding to ENL L550E mutant protein: did not show binding
